{"source": "patent US6166290A", "about": "“Glutathione-S-conjugate transport in plants” (The Trustees of the University of Pennsylvania, priority 1997, dated 2000)", "key": {"[1]": {"tested_on": "DTY165 cells", "assay": "Fluorescence microscopy of vacuolar bimane-GS accumulation, DTY165 cells", "format": "cell-based, Saccharomyces cerevisiae", "conditions": "100 μM monochlorobimane, 6 hours", "experimental": "(§1) Cells were grown in YPD medium for 24 hours at 30° C. to an OD600 nm of approximately 1.4, and 100 μl aliquots of the suspensions were transferred to 15 ml volumes of fresh YPD medium containing 100 μM syn-(ClCH2,CH3)-1,5-diazabicyclo-[3.3.0]-[…] (monochlorobimane) (Kosower et al., 1980, J Am. Chem. Soc. 102:4983-4993). After incubation for 6 hours, the cells were pelleted by centrifugation, washed twice with YPD medium lacking monochlorobimane, and viewed without fixation under an Olympus BH-2 fluorescence microscope equipped with a BP-490 UV excitation filter, AFC-0515 barrier filter, and Nomarski optics attachment."}, "[2]": {"target": "T1, YCF1 (vacuolar membrane vesicles purified from DTY165 cells) (Saccharomyces cerevisiae, UniProt P39109)", "T1 construct": "endogenous in cells; host or cells: S. cerevisiae DTY165 (wild type YCF1), vacuolar membrane vesicles", "T1 sequence (P39109 whole entry)": "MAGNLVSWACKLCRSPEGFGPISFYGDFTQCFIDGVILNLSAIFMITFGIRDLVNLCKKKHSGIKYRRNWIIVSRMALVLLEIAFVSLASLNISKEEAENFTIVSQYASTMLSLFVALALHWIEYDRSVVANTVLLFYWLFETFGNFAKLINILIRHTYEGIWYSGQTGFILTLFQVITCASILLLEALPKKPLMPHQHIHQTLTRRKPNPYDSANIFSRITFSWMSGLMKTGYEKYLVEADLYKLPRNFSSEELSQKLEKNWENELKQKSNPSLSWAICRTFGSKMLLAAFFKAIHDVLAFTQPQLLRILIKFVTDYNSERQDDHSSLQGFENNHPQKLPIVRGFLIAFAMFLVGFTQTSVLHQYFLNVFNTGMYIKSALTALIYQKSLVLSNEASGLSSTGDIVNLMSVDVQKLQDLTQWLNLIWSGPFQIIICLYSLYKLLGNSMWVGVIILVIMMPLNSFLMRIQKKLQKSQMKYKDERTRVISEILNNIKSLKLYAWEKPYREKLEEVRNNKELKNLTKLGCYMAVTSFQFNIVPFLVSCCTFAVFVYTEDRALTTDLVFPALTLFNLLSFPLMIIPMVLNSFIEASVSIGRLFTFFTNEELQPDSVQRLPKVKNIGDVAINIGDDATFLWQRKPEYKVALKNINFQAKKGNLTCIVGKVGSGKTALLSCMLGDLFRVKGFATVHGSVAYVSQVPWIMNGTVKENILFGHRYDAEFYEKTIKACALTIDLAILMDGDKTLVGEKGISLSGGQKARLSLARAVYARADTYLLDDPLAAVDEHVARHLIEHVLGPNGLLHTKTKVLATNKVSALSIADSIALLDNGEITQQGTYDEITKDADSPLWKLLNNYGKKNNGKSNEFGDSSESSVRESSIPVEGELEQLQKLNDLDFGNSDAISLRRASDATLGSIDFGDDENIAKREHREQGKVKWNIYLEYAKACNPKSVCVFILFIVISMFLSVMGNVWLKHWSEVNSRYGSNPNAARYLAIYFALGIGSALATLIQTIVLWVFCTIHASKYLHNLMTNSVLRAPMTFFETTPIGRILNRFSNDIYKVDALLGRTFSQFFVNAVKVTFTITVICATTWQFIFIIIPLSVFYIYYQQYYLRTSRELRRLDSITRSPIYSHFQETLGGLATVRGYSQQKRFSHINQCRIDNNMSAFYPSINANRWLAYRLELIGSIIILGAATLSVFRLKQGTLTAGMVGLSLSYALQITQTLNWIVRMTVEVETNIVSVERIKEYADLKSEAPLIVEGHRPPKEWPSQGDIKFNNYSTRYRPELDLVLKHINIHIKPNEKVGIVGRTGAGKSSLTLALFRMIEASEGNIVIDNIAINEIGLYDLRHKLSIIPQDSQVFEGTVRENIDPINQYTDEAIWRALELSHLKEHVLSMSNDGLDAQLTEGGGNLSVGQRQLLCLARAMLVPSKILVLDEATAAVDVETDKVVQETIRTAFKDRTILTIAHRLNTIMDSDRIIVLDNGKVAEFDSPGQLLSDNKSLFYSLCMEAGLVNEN", "assay": "[3H]DNP-GS uptake by vacuolar membrane vesicles purified from DTY165 cells", "format": "biochemical", "summary_of_the_method": "(§2)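 ATP-dependent [3H]DNP-GS (66.2 μM) transport measured by filtration and scintillation counting of Ficoll-purified yeast vacuolar vesicles (DTY165 wild type; DTY167 ycf1Δ), 1–60 min at 25 °C in sorbitol/Tris-Mes pH 8.0 with 3 mM ATP, 3 mM MgSO4 and gramicidin-D. Nonenergized uptake without ATP/Mg2+.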"}, "[3]": {"tested_on": "vacuolar membrane vesicles purified from DTY167 cells (ycf1Δ mutant)", "format": "biochemical, Saccharomyces cerevisiae", "conditions": "5 μM gramicidin D, GSH, GSSG 1 mM, GS-conjugates 100 μM", "summary_of_the_method": "as §2"}, "[4]": {"tested_on": "DTY167 cells", "assay": "Fluorescence microscopy of vacuolar bimane-GS accumulation, DTY167 cells", "format": "cell-based, Saccharomyces cerevisiae", "conditions": "100 μM monochlorobimane, 6 hours", "experimental": "as §1"}, "[5]": {"substrate": "N[C@@H](CCC(=O)N[C@@H](CSSC[C@H](NC(=O)CC[C@H](N)C(=O)O)C(=O)NCC(=O)O)C(=O)NCC(=O)O)C(=O)O", "assay": "cells, lysate or membranes", "conditions": "other: MgATP-dependent, uncoupler-insensitive; pH 8.0"}, "[6]": {"substrate": "N[C@@H](CCC(=O)N[C@@H](CSc1ccc([N+](=O)[O-])cc1[N+](=O)[O-])C(=O)NCC(=O)O)C(=O)O", "assay": "AtMRP1-dependent uptake by membrane vesicles from pYES3-AtMRP1-transformed DTY168 cells", "format": "biochemical, Arabidopsis thaliana", "conditions": "other: MgATP-dependent, uncoupler-insensitive; pH 8.0"}}, "note": "“And” between values parts separate entries of the source, which are not always exact repeats. Equal values may be shown once.", "data": [{"molecule": "Cc1c(C)n2c(CCl)c(C)c(=O)n2c1=O", "note": "[monochlorobimane, syn-(ClCH2,CH3)-1,5-diazabicyclo-[3.3.0]-octa-3,6-dione-2,8-dione]", "values": [{"measurement": "vacuolar fluorescence (bimane-GS)", "setting": "[1]", "result": "intense punctate fluorescence"}]}, {"molecule": "Cc1c(C)n2c(CSC[C@H](NC(=O)CC[C@H](N)C(=O)O)C(=O)NCC(=O)O)c(C)c(=O)n2c1=O", "note": "[Bimane-GS]", "values": [{"measurement": "MgATP-dependent, uncoupler-insensitive DNP-GS uptake plus compound", "setting": "[2]; 5 μM gramicidin D, GSH, GSSG 1 mM, GS-conjugates 100 μM", "result": "25.2 ± 1.1", "unit": "nmol/mg/10 minutes"}, {"measurement": "MgATP-dependent, uncoupler-insensitive DNP-GS uptake as percentage of control", "setting": "[2]; 5 μM gramicidin D, GSH, GSSG 1 mM, GS-conjugates 100 μM, 10 min", "result": 52.6, "unit": "%"}, {"measurement": "inhibition at 100 µM", "setting": "[2]; 100 μM compound", "result": "~50", "unit": "%"}, {"measurement": "MgATP-dependent, uncoupler-insensitive DNP-GS uptake plus compound", "setting": "[3]", "result": "4.5 ± 0.4", "unit": "nmol/mg/10 minutes"}, {"measurement": "MgATP-dependent, uncoupler-insensitive DNP-GS uptake as percentage of control", "setting": "[3]; 10 min", "result": 69.2, "unit": "%"}, {"measurement": "vacuolar fluorescence (bimane-GS)", "setting": "[4]", "result": "severely attenuated"}]}, {"molecule": "AtMRP2 (Arabidopsis thaliana) (protein) MGFEFIEWYCKPVPNGVWTKQVANAFGAYTPCATDSFVLGISQLVLLVLCLYRIWLALKDHKVERFCLRSRLYNYFLALLAAYATAEPLFRLIMGISVLDFDGPGLPPFEAFGLGVKAFAWGAVMVMILMETKIYIRELRWYVRFAVIYALVGDMVLLNLVLSVKEYYSSYVLYLYTSEVGAQVLFGILLFMHLPNLDTYPGYMPVRSETVDDYEYEEISDGQQICPEKHANIFDKIFFSWMNPLMTLGSKRPLTEKDVWYLDTWDQTETLFTSFQHSWDKELQKPQPWLLRALNNSLGGRFWWGGFWKIGNDCSQFVGPLLLNQLLKSMQEDAPAWMGYIYAFSIFVGVVFGVLCEAQYFQNVMRVGYRLRSALIAAVFRKSLRLTNEGRRKFQTGKITNLMTTDAESLQQICQSLHTMWSAPFRIIIALILLYQQLGVASLIGALLLVLMFPLQTVIISKMQKLTKEGLQRTDKRIGLMNEVLAAMDTVKCYAWENSFQSKVQTVRDDELSWFRKSQLLGALNMFILNSIPVLVTIVSFGVFTLLGGDLTPARAFTSLSLFAVLRFPLFMLPNIITQVVNANVSLKRLEEVLATEERILLPNPPIEPGEPAISIRNGYFSWDSKGDRPTLSNINLDVPLGSLVAVVGSTGEGKTSLISAILGELPATSDAIVTLRGSVAYVPQVSWIFNATVRDNILFGSPFDREKYERAIDVTSLKHDLELLPGGDLTEIGERGVNISGGQKQRVSMARAVYSNSDVYIFDDPLSALDAHVGQQVFEKCIKRELGQKTRVLVTNQLHFLSQVDRIVLVHEGTVKEEGTYEELSSNGPLFQRLMENAGKVEEYSEENGEAEADQTAEQPVANGNTNGLQMDGSDDKKSKEGNKKGGKSVLIKQEERETGVVSWRVLKRYQDALGGAWVVMMLLLCYVLTEVFRVTSSTWLSEWTDAGTPKSHGPLFYNLIYALLSFGQVLVTLTNSYWLIMSSLYAAKKLHDNMLHSILRAPMSFFHTNPLGRIINRFAKDLGDIDRTVAVFVNMFMGQVSQLLSTVVLIGIVSTLSLWAIMPLLVLFYGAYLYYQNTAREVKRMDSISRSPVYAQFGEALNGLSTIRAYKAYDRMADINGRSMDNNIRFTLVNMGANRWLGIRLETLGGLMIWLTASFAVMQNGRAENQQAFASTMGLLLSYALNITSLLTGVLRLASLAENSLNAVERVGNYIEIPPEAPPVIENNRPPPGWPSSGSIKFEDVVLRYRPQLPPVLHGVSFFIHPTDKVGIVGRTGAGKSSLLNALFRIVEVEKGRILIDDCDVGKFGLMDLRKVLGIIPQSPVLFSGTVRFNLDPFGEHNDADLWESLERAHLKDTIRRNPLGLDAEVSEAGENFSVGQRQLLSLSRALLRRSKILVLDEATAAVDVRTDALIQKTIREEFKSCTMLIIAHRLNTIIDCDKILVLDSGRVQEFSSPENLLSNEGSSFSKMVQSTGAANAEYLRSLVLDNKRAKDDSHHLQGQRKWLASSRWAAAAQFALAASLTSSHNDLQSLEIEDDSSILKRTNDAVVTLRSVLEGKHDKEIAESLEEHNISREGWLSSLYRMVEGLAVMSRLARNRMQQPDYNFEGNTFDWDNVEM", "values": [{"measurement": "Km", "setting": "[5]", "result": "73.0 ± 15.1", "unit": "µM"}]}, {"molecule": "AtMRP1 (Arabidopsis thaliana) (protein, S. cerevisiae DTY168 (ycf1 null) vacuolar-enriched membrane vesicles) MGFEPLDWYCKPVPNGVWTKTVDYAFGAYTPCAIDSFVLGISHLVLLILCLYRLWLITKDHKVDKFCLRSKWFSYFLALLAAYATAEPLFRLVMRISVLDLDGAGFPPYEAFMLVLEAFAWGSALVMTVVETKTYIHELRWYVRFAVIYALVGDMVLLNLVLSVKEYYGSFKLYLYISEVAVQVAFGTLLFVYFPNLDPYPGYTPVGTENSEDYEYEELPGGENICPERHANLFDSIFFSWLNPLMTLGSKRPLTEKDVWHLDTWDKTETLMRSFQKSWDKELEKPKPWLLRALNNSLGGRFWWGGFWKIGNDCSQFVGPLLLNELLKSMQLNEPAWIGYIYAISIFVGVVLGVLCEAQYFQNVMRVGYRLRSALIAAVFRKSLRLTNEGRKKFQTGKITNLMTTDAESLQQICQSLHTMWSAPFRIIVALVLLYQQLGVASIIGALFLVLMFPIQTVIISKTQKLTKEGLQRTDKRIGLMNEVLAAMDTVKCYAWENSFQSKVQTVRDDELSWFRKAQLLSAFNMFILNSIPVLVTVVSFGVFSLLGGDLTPARAFTSLSLFSVLRFPLFMLPNIITQMVNANVSLNRLEEVLSTEERVLLPNPPIEPGQPAISIRNGYFSWDSKADRPTLSNINLDIPLGSLVAVVGSTGEGKTSLISAMLGELPARSDATVTLRGSVAYVPQVSWIFNATVRDNILFGAPFDQEKYERVIDVTALQHDLELLPGGDLTEIGERGVNISGGQKQRVSMARAVYSNSDVCILDDPLSALDAHVGQQVFEKCIKRELGQTTRVLVTNQLHFLSQVDKILLVHEGTVKEEGTYEELCHSGPLFQRLMENAGKVEDYSEENGEAEVDQTSVKPVENGNANNLQKDGIETKNSKEGNSVLVKREERETGVVSWKVLERYQNALGGAWVVMMLVICYVLTQVFRVSSSTWLSEWTDSGTPKTHGPLFYNIVYALLSFGQVSVTLINSYWLIMSSLYAAKKMHDAMLGSILRAPMVFFQTNPLGRIINRFAKDMGDIDRTVAVFVNMFMGSIAQLLSTVILIGIVSTLSLWAIMPLLVVFYGAYLYYQNTSREIKRMDSTTRSPVYAQFGEALNGLSSIRAYKAYDRMAEINGRSMDNNIRFTLVNMAANRWLGIRLEVLGGLMVWLTASLAVMQNGKAANQQAYASTMGLLLSYALSITSSLTAVLRLASLAENSLNSVERVGNYIEIPSEAPLVIENNRPPPGWPSSGSIKFEDVVLRYRPELPPVLHGVSFLISPMDKVGIVGRTGAGKSSLLNALFRIVELEKGRILIDECDIGRFGLMDLRKVLGIIPQAPVLFSGTVRFNLDPFSEHNDADLWESLERAHLKDTIRRNPLGLDAEVTEAGENFSVGQRQLLSLARALLRRSKILVLDEATAAVDVRTDVLIQKTIREEFKSCTMLIIAHRLNTIIDCDKVLVLDSGKVQEFSSPENLLSNGESSFSKMVQSTGTANAEYLRSITLENKRTREANGDDSQPLEGQRKWQASSRWAAAAQFALAVSLTSSHNDLQSLEIEDDNSILKKTKDAVVTLRSVLEGKHDKEIEDSLNQSDISRERWWPSLYKMVEGLAVMSRLARNRMQHPDYNLEGKSFDWDNVEM", "values": [{"measurement": "Km", "setting": "[5]", "result": 219, "unit": "µM"}, {"measurement": "Km", "setting": "[6]", "result": "48.7 ± 15.4 µM and 73.8 µM and 49.7 ± 15.4 µM"}]}]}
